Measured values as given in PMC6466937, “Evaluation of In Vitro Antioxidant and Antidiabetic Activities of Aristolochia longa Extracts” (Evidence-based Complementary and Alternative Medicine : eCAM, 2019).

Biological target: T1, β-Galactosidase from Aspergillus oryzae (Aspergillus oryzae, UniProt Q2UCU3)
T1 construct: gene lacA; commercial secreted enzyme (Sigma-Aldrich), no catalogue number
T1 sequence (Q2UCU3 19-1005): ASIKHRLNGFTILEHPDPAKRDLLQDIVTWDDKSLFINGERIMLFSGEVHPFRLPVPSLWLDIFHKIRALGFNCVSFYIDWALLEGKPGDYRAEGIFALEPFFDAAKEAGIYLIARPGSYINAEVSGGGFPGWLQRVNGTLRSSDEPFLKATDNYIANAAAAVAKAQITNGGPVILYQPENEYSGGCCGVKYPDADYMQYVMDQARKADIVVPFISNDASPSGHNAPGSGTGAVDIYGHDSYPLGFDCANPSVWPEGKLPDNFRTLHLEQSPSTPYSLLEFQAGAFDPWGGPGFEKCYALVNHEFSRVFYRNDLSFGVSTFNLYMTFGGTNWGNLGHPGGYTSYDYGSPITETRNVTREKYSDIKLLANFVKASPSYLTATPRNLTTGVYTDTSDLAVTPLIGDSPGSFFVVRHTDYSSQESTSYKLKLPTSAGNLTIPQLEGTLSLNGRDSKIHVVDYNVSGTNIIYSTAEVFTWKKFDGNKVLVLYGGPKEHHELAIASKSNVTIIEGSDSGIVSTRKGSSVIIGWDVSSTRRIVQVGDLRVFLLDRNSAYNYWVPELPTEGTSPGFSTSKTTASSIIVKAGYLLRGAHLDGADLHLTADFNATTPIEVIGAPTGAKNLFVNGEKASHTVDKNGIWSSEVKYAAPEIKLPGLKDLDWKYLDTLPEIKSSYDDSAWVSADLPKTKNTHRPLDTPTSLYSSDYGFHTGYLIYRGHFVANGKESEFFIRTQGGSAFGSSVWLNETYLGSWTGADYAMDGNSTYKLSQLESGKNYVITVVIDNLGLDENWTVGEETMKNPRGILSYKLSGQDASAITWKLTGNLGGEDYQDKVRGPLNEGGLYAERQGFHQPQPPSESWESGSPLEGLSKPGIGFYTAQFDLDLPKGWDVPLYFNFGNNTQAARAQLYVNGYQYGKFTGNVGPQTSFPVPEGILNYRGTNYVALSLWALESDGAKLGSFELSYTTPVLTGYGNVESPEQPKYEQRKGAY
Assay: 2-nitrophenyl beta-D-galactopyranoside hydrolysis, absorbance […] nm
Assay type: biochemical
Conditions: read-out: β-Galactosidase inhibition / IC50 (mg/mL) (converted)

O=c1c(O)c(-c2ccc(O)c(O)c2)oc2cc(O)cc(O)c12 [Quercetin] gave an IC50 of 817 µM.
